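Where inhibition never reached the appropriate level, the endpoint shown equals the highest concentration tested. Otherwise, values were interpolated linearly from a five-concentration, 48-hour dose response in 96-well plates. The concentration for 50% growth inhibition is given as GI50.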 Activity calls are given as the source filed them. Cut-off read from the data, not from the text of the source: active = GI50 up to about 1.1 µM and inactive = higher.
Columns and labels:
Assay in all cases: DTP human tumour cell line panel, 48 h
[1] = test system: IGROV-1
[2] = test system: HL-60
[3] = test system: NCI-H23
[4] = test system: K562
[5] = test system: NCI-H460
[6] = test system: KM12
[7] = test system: SF-268
[8] = test system: LOX IMVI
[9] = test system: HCT-15
[10] = test system: EKVX
[11] = test system: OVCAR-4
[12] = test system: HCC 2998
[13] = test system: SF-539
[14] = test system: SN12C
[15] = test system: HCT-116
[16] = test system: NCI-H226
[17] = test system: SK-MEL-28
[18] = test system: OVCAR-5
[19] = test system: OVCAR-8
[20] = test system: MCF7

| SMILES | GI50 [1] | GI50 [2] | GI50 [3] | GI50 [4] | GI50 [5] | GI50 [6] | GI50 [7] | GI50 [8] | GI50 [9] | GI50 [10] | GI50 [11] | GI50 [12] | GI50 [13] | GI50 [14] | GI50 [15] | GI50 [16] | GI50 [17] | GI50 [18] | GI50 [19] | GI50 [20] |
| --- | --- | --- | --- | --- | --- | --- | --- | --- | --- | --- | --- | --- | --- | --- | --- | --- | --- | --- | --- | --- |
| CCOC(=O)CCC(NC(=O)c1ccc(NCc2ccc3nc(-c4ccccc4)c(Cl)nc3c2)cc1)C(=O)OCC (stereo unspecified) | 27.9 µM (inactive) | 17.4 µM (inactive) | 79.8 µM (inactive) | 6.19 µM (inactive) | 27.7 µM (inactive) | > 100 µM (inactive) | 53.8 µM (inactive) | 26.1 µM (inactive) | 64.1 µM | 46.3 µM (inactive) | 20.9 µM (inactive) | 92.3 µM (inactive) | 35.8 µM (inactive) | 41.1 µM (inactive) | 40.7 µM (inactive) | 32.4 µM (inactive) | > 10 µM (inactive) | > 100 µM (inactive) |  |  |
| NC(=O)C(=O)N/N=C(\CC1(O)C(=O)Nc2ccccc21)c1ccc2ccccc2c1 (stereo unspecified) | 40.5 µM (inactive) | 16.6 µM (inactive) | 29.6 µM (inactive) | 23.1 µM (inactive) | 34 µM (inactive) | 21.7 µM (inactive) | 40.9 µM (inactive) | 30.3 µM (inactive) | 24.5 µM | 33.1 µM (inactive) | 37.1 µM (inactive) | 41.5 µM (inactive) | 48.9 µM (inactive) | 26.3 µM (inactive) | 9.48 µM (inactive) | 41.4 µM (inactive) | 26.9 µM (inactive) | > 100 µM (inactive) | 56 µM (inactive) |  |
| NC(CCCC(N)P(=O)(O)c1ccccc1)P(=O)(O)c1ccccc1 (stereo unspecified) | > 261 µM (inactive) | > 261 µM (inactive) | > 261 µM (inactive) | > 261 µM (inactive) | > 261 µM (inactive) | > 261 µM (inactive) | > 261 µM (inactive) | > 261 µM (inactive) | > 261 µM | > 261 µM (inactive) | > 261 µM (inactive) | > 261 µM (inactive) | > 261 µM (inactive) | > 261 µM (inactive) | > 261 µM (inactive) | > 261 µM (inactive) | > 261 µM (inactive) |  | > 261 µM (inactive) |  |
| CC(ON1[C@](C)(c2ccccc2)CC[C@@]1(C)c1ccccc1)c1ccccc1 (stereo partly specified) | 52 µM (inactive) | 23.6 µM (inactive) | 40 µM (inactive) | 33 µM (inactive) | 36.2 µM (inactive) | 29.4 µM (inactive) | 58.5 µM (inactive) | 31.2 µM (inactive) | > 100 µM | 23.8 µM (inactive) | 68.4 µM (inactive) | 20.9 µM (inactive) | > 100 µM (inactive) | 45.6 µM (inactive) | 25.4 µM (inactive) | 40.9 µM (inactive) | 53.2 µM (inactive) | 41.1 µM (inactive) | 48.2 µM (inactive) |  |
| CC(=O)OC12C=CC(=O)N1c1ccccc1C(=O)O2 (stereo unspecified) | > 100 µM (inactive) | > 100 µM (inactive) | > 100 µM (inactive) | > 100 µM (inactive) | > 100 µM (inactive) | > 100 µM (inactive) | > 100 µM (inactive) | > 100 µM (inactive) | > 100 µM | > 100 µM (inactive) | > 100 µM (inactive) | > 100 µM (inactive) | > 100 µM (inactive) | > 100 µM (inactive) | > 100 µM (inactive) | > 100 µM (inactive) | > 100 µM (inactive) | > 100 µM (inactive) | > 100 µM (inactive) |  |
| CC(=O)Nc1ccc(C2C(C(=O)Nc3ccccc3C)=C(C)NC(C)=C2C(=O)Nc2ccccc2C)cc1 | > 100 µM (inactive) | 39.5 µM (inactive) | > 100 µM (inactive) | 57.5 µM (inactive) | > 100 µM (inactive) | > 31.6 µM (inactive) | > 100 µM (inactive) | > 100 µM (inactive) | > 100 µM | > 100 µM (inactive) | > 100 µM (inactive) | > 100 µM (inactive) | > 100 µM (inactive) | > 100 µM (inactive) | > 100 µM (inactive) | > 100 µM (inactive) | > 100 µM (inactive) | > 100 µM (inactive) | > 92 µM (inactive) |  |
| COC(=O)C1C(=O)O[C@@H](c2ccc(OC)cc2OC)C1C(=O)OC (stereo partly specified) | > 100 µM (inactive) | > 100 µM (inactive) | > 100 µM (inactive) | > 100 µM (inactive) | > 100 µM (inactive) | > 100 µM (inactive) | > 100 µM (inactive) | > 100 µM (inactive) | > 100 µM | > 100 µM (inactive) | > 100 µM (inactive) | > 100 µM (inactive) | > 100 µM (inactive) | > 100 µM (inactive) | > 100 µM (inactive) | > 100 µM (inactive) | > 100 µM (inactive) | > 100 µM (inactive) | > 100 µM (inactive) |  |
| CCOC(=O)C1=COC(C)(C)CC1=O |  |  | > 100 µM (inactive) | > 100 µM (inactive) | > 100 µM (inactive) | > 100 µM (inactive) | > 100 µM (inactive) |  | > 100 µM | > 100 µM (inactive) | > 100 µM (inactive) |  | > 100 µM (inactive) | > 100 µM (inactive) | > 100 µM (inactive) |  | > 100 µM (inactive) | > 100 µM (inactive) | > 100 µM (inactive) | > 100 µM (inactive) |
